Source: PubChem BioAssay (NCI)
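Briefly, cells in 96-well plates were exposed to five compound concentrations for 48 h, and endpoints were estimated by linear interpolation. Abbreviation: GI50, concentration required for 50% inhibition of growth. The concentration for full growth arrest is given as TGI.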

Experiments:
Assay in all cases: NCI tumour cell line growth inhibition, 48 h
[1] = tested on: 786-0 renal
[2] = tested on: A498 renal
[3] = tested on: A549 NSCLC
[4] = tested on: ACHN renal
[5] = tested on: BT-549 breast
[6] = tested on: CAKI-1 renal
[7] = tested on: CCRF-CEM leukemia
[8] = tested on: COLO 205 colon
[9] = tested on: DU-145 prostate
[10] = tested on: EKVX NSCLC
[11] = tested on: HCC-2998 colon
[12] = tested on: HCT-116 colon
[13] = tested on: HCT-15 colon
[14] = tested on: HL-60(TB) leukemia
[15] = tested on: HOP-62 NSCLC
[16] = tested on: HOP-92 NSCLC
[17] = tested on: HT29 colon
[18] = tested on: IGROV1 ovarian
[19] = tested on: K-562 leukemia
[20] = tested on: KM12 colon
[21] = tested on: LOX IMVI melanoma
[22] = tested on: M14 melanoma
[23] = tested on: MALME-3M melanoma
[24] = tested on: MDA-MB-231 breast
[25] = tested on: MDA-MB-435
[26] = tested on: MDA-MB-468 breast
[27] = tested on: NCI-H226 lung
[28] = tested on: NCI-H23 lung
[29] = tested on: NCI-H460 lung
[30] = tested on: NCI-H522 lung
[31] = tested on: NCI/ADR-RES ovarian
[32] = tested on: OVCAR-3 ovarian
[33] = tested on: OVCAR-4 ovarian
[34] = tested on: OVCAR-5 ovarian
[35] = tested on: OVCAR-8 ovarian
[36] = tested on: PC-3 prostate
[37] = tested on: RPMI-8226 leukemia
[38] = tested on: RXF 393 renal
[39] = tested on: SF-268 CNS
[40] = tested on: SF-295 CNS
[41] = tested on: SF-539 CNS
[42] = tested on: SK-MEL-2 melanoma
[43] = tested on: SK-MEL-28 melanoma
[44] = tested on: SK-MEL-5 melanoma
[45] = tested on: SK-OV-3 ovarian
[46] = tested on: SN12C renal
[47] = tested on: SNB-19 CNS
[48] = tested on: SNB-75 CNS
[49] = tested on: SR leukemia
[50] = tested on: SW-620 colon
[51] = tested on: T-47D breast
[52] = tested on: TK-10 renal
[53] = tested on: U251 CNS
[54] = tested on: UACC-257 melanoma
[55] = tested on: UACC-62 melanoma
[56] = tested on: UO-31 renal

Compound `NS(=O)(=O)c1ccc(N=Nc2c(O)n(CC(=O)Nc3ccccc3)c3ccccc23)cc1` has a GI50 [1] of 1.29 µM, a TGI [1] of 6.54 µM and a GI50 [2] of 1.29 µM. For the same compound, the TGI [2] was 5.39 µM, the GI50 [3] was 0.738 µM and the TGI [3] was 4.18 µM. For the same compound, the GI50 [4] was 0.606 µM, the TGI [4] was 4.53 µM and the GI50 [5] was 2.03 µM. For the same compound, the TGI [5] was 7.73 µM, the GI50 [6] was 0.434 µM and the TGI [6] was 2.36 µM. For the same compound, the GI50 [7] was 0.776 µM, the TGI [7] was greater than 100 µM and the GI50 [8] was 1.24 µM. The TGI [8] was 6.74 µM, the GI50 [9] was 0.794 µM and the TGI [9] was 48.3 µM. It also gave a GI50 [10] of 3.35 µM, a TGI [10] of 39.3 µM and a GI50 [11] of 2.2 µM. It also gave a TGI [11] of 8.56 µM, a GI50 [12] of 0.46 µM and a TGI [12] of 2.58 µM. For the same compound, the GI50 [13] was 0.533 µM, the TGI [13] was greater than 100 µM and the GI50 [14] was 0.443 µM. The TGI [14] was greater than 100 µM, the GI50 [15] was 1.8 µM and the TGI [15] was 5.5 µM. It also gave a GI50 [16] of 1.6 µM, a TGI [16] of 6.56 µM and a GI50 [17] of 0.749 µM. The TGI [17] was 2.82 µM, the GI50 [18] was 2.79 µM and the TGI [18] was 14.5 µM. The GI50 [19] was 0.895 µM, the TGI [19] was greater than 100 µM and the GI50 [20] was 1.03 µM. It also gave a TGI [20] of 22.5 µM, a GI50 [21] of 0.725 µM and a TGI [21] of 11.3 µM. The GI50 [22] was 1.14 µM, the TGI [22] was greater than 100 µM and the GI50 [23] was 1.09 µM. The TGI [23] was 5.15 µM, the GI50 [24] was 1.4 µM and the TGI [24] was 3.92 µM. It also gave a GI50 [25] of 0.635 µM, a TGI [25] of 6.1 µM and a GI50 [26] of 0.768 µM. For the same compound, the TGI [26] was 4.65 µM, the GI50 [27] was 1.4 µM and the TGI [27] was 4.75 µM. It also gave a GI50 [28] of 0.801 µM, a TGI [28] of 3.46 µM and a GI50 [29] of 0.544 µM. It also gave a TGI [29] of 3.07 µM, a GI50 [30] of 0.589 µM and a TGI [30] of 3.8 µM. It also gave a GI50 [31] greater than 100 µM, a TGI [31] greater than 100 µM and a GI50 [32] of 0.873 µM. It also gave a TGI [32] of 16 µM, a GI50 [33] of 0.93 µM and a TGI [33] of 69.7 µM. It also gave a GI50 [34] of 3.52 µM, a TGI [34] of 26.1 µM and a GI50 [35] of 0.646 µM. The TGI [35] was 3.16 µM, the GI50 [36] was 1.61 µM and the TGI [36] was 10.9 µM. For the same compound, the GI50 [37] was 1.13 µM, the TGI [37] was greater than 100 µM and the GI50 [38] was 1.36 µM. For the same compound, the TGI [38] was 5.06 µM, the GI50 [39] was 3.59 µM and the TGI [39] was greater than 100 µM. It also gave a GI50 [40] of 1.23 µM, a TGI [40] of 5.16 µM and a GI50 [41] of 0.538 µM. For the same compound, the TGI [41] was 2.03 µM, the GI50 [42] was 2.25 µM and the TGI [42] was 6.9 µM. It also gave a GI50 [43] of 0.932 µM, a TGI [43] of 6.06 µM and a GI50 [44] of 1 µM. It also gave a TGI [44] of 5.5 µM, a GI50 [45] of 3.11 µM and a TGI [45] of 10.2 µM. For the same compound, the GI50 [46] was 1.14 µM, the TGI [46] was 6.05 µM and the GI50 [47] was 1.67 µM. The TGI [47] was 15.1 µM, the GI50 [48] was 1.94 µM and the TGI [48] was 8.22 µM. It also gave a GI50 [49] of 0.194 µM, a TGI [49] greater than 100 µM and a GI50 [50] of 0.402 µM. For the same compound, the TGI [50] was 2.26 µM, the GI50 [51] was 1.89 µM and the TGI [51] was 21.4 µM. For the same compound, the GI50 [52] was 2.64 µM, the TGI [52] was 25.8 µM and the GI50 [53] was 1.17 µM. For the same compound, the TGI [53] was 3.88 µM, the GI50 [54] was 2.02 µM and the TGI [54] was 20.3 µM. The GI50 [55] was 0.52 µM, the TGI [55] was 2.81 µM and the GI50 [56] was 0.895 µM. It also gave a TGI [56] of 6.95 µM.
